Patent EP1077942B1, “CARBOXY SUBSTITUTED CARBOXAMIDE DERIVATIVES AS TACHYKININ RECEPTOR ANTAGONISTS” (Aventis Pharmaceuticals Inc., priority 1998, dated 1999)
Structures can show the parent of a compound that is named as a salt.

Key:
NK1 receptor = target: T1, NK1 receptor (Cavia porcellus, UniProt P30547); assay: Antagonism of iodinated tachykinin binding to NK1 receptor (Example A); settings: guinea pig lungs membranes; 125I-Bolton Hunter Lys-3 labeled substance P 0.1 nM; mean of several experiments
T1 construct: evaluated in guinea pig lungs (Keystone Biologicals, Cleveland, OH); tissue Keystone Biologicals, Cleveland, OH; host or cells: guinea pig lung membrane homogenate
T1 sequence (P30547 whole entry): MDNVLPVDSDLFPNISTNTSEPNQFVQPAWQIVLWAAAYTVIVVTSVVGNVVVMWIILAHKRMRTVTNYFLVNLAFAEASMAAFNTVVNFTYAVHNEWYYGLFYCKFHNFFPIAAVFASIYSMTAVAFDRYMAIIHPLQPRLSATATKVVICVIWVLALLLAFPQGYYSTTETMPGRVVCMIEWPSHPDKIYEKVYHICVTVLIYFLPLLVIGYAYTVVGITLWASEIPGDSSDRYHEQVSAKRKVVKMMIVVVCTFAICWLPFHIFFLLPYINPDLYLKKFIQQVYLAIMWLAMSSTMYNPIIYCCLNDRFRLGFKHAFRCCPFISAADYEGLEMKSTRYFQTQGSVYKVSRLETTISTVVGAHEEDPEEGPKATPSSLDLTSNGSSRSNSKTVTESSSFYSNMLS
Procedure: (§1) Antagonism of iodinated tachykinin binding to NK1 and NK2 receptors by putative antagonists
(§2) One skilled in the art can determine the NK1 receptor and NK2 receptor affinity in vitro as follows. The NK1 receptor affinity of tachykinin antagonists is evaluated in guinea pig lungs (Keystone Biologicals, Cleveland, OH) and affinity for the NK2 receptor is evaluated in HSKR-1 cells (which are mouse 3T3 fibroblasts expressing the human jejunal NK2 receptor). Tissues or cells are homogenized with a Polytron in 15 volumes of 50 mM Tris-HCl buffer (pH 7.4, 4°C) and centrifuged. The pellet is resuspended in Tris-HCl buffer and is centrifuged; the pellet is washed twice by resuspension. The final pellet is resuspended at a concentration of 40 mg/ml for tissues and 20 mg/ml for cells in incubation buffer and remains at room temperature for at least 15 min prior to use. […] Filter bound radioactivity is quantitated in a gamma counter. Nonspecific binding is defined as binding in the presence of 1 µM substance P or neurokinin A. Specific binding is calculated by subtracting nonspecific binding from total binding. Competition of iodinated SP or NKA binding by test compounds or standards is expressed as a percentage of this maximum binding. […]

[1] = target: T2, human jejunal NK2 receptor (Homo sapiens, UniProt P21452); assay: Antagonism of iodinated tachykinin binding to NK2 receptor (Example A); settings: HSKR-1 cells (mouse 3T3 fibroblasts expressing the human jejunal NK2 receptor); 125 iodohistidyl-1-neurokinin A 0.1 nM; mean of several experiments
T2 construct: expressed in transfected cells; host or cells: HSKR-1 cells (mouse 3T3 fibroblasts)
T2 sequence (P21452 1-398): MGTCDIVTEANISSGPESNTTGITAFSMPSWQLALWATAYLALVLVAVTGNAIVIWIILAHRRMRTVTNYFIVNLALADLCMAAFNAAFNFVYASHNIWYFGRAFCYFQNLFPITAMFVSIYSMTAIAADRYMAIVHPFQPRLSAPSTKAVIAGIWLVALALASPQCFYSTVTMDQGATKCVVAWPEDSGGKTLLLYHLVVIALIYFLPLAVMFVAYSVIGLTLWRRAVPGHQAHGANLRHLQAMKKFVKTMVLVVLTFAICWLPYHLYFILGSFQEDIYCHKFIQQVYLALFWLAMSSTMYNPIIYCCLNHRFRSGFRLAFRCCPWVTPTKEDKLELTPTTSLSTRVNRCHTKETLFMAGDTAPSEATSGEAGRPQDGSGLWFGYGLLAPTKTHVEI
Procedure: as §1, §2

CCOC(=O)CN1CCN(C(=O)C2(c3ccccc3)CCN(CC[C@H](CN(C)C(=O)c3cc(-n4cnnn4)ccc3OC)c3ccc(Cl)c(Cl)c3)CC2)CC1 [Example 1.2, (S)-N-methyl-N-(4-(4-phenyl-4-((4-carboethoxymethylpiperazin-1-yl)carboxamido)piperidin-1-yl) 2-(3,4-dichlorophenyl)butyl)-2-methoxy-5-(1H-tetrazol-1-yl)benzamide hydrochloric acid salt]
IC50 (NK1 receptor): 23 nM
IC50 [1]: 178 nM
